From patent US5506217A, “Phosphonates as anti-cancer agents” (The University of British Columbia, priority 1994, dated 1996)

Legend:
WEHI-3B tumor cells [1] = test: 3H-thymidine incorporation assay; assay type: cell-based; conditions: Mus musculus, WEHI3B, read-out: Thymidine uptake (% of control)
Protocol: (§1) Experiments were performed using a number of different rumor cell lines. Tumor cells were cultured in RPMI-1640 medium supplemented with 10% fetal bovine serum, penicillin (50 units/mL), streptomycin (50 μg/mL) and mercaptoethanol (5 μg/mL) in an atmosphere of 5% CO2. The cells were passaged weekly by serial 1/10 to 1/10,000 dilutions. The cell viability and growth were constantly monitored by staining with trypan blue exclusion dye or the incorporation of tritiated thymidine.
(§2) Inhibition of ^3 H-thymidine incorporation into the DNA of cells by a test compound is an indirect measurement of cell kill or growth inhibition, and reflects the anti-cancer activity of the compound.
Tumor cells (2×104 ^4 cells/well) were placed in 200 μL of medium in 96-well plastic microtiter plates; a further 5 μL of medium either with or without phosphonate was added. […] The cells were then harvested using a Brandel cell harvester (model M-12) and collected on Whatman glass microfilters. The radioactivity associated with the filters was quantified in a liquid scintillation counter, and the amount of ^3 H-thymidine incorporated into tumor cells treated with the phosphonate compound was calculated as a percentage of the amount of ^3 H-thymidine incorporated into untreated tumor cells.
The biological activities of 4-hexadecylthio-3(S ) -3-methoxybutane-l-phosponocholine and its enantiomer 4-hexadecylthio-3(R)-3-methoxybutane-1-phosphonocholine were studied on several cancer cell lines. […] The cell viability, was determined as percent[^3 H]thymidine uptake into the cell DNA. The following results are mean of five samples ± S.D.

C-41 tumor cells = test: 3H-thymidine incorporation assay; assay type: cell-based; conditions: Homo sapiens, read-out: Thymidine uptake (% of control)
Protocol: as §1, §2
Tumor cells (2×104 ^4 cells/well) were placed in 200 μL of medium in 96-well plastic microtiter plates; a further 5 μL of medium either with or without phosphonate was added. After incubation for 24, 48 or 72 hours at 37° C. in a humidified atmosphere containing 5% CO2, the wells were pulsed with 0.1 μCi of ^3 H-thymidine for an additional 24 hours. The cells were then harvested using a Brandel cell harvester (model M-12) and collected on Whatman glass microfilters. The radioactivity associated with the filters was quantified in a liquid scintillation counter, and the amount of ^3 H-thymidine incorporated into tumor cells treated with the phosphonate compound was calculated as a percentage of the amount of ^3 H-thymidine incorporated into untreated tumor cells.
It has been discovered that a phosphonate compound of the following structure: [drawing 21] inhibits thymidine incorporation into DNA of a human cervical carcinoma (C-41 ) cell line. This effect is indicative of the anti-cancer activity of the above compound.

[2] = tested on: Lewis lung carcinoma cells; test: LLC tumor growth in BALB/C mice; assay type: in vivo; conditions: for Tumor volume (mm^3): 50 mg/day orally once a day from day 3
Protocol: BALB/C mice were injected with […] lung carcinoma cells under the skin at the back. Three days after injection of the rumor cells, treatment with the phosphonate shown above (compound VI) (50 mg/day orally once a day) was initiated in one group of mice, while a second group of mice received only the carrier, mucilage of tragacanth.

L1210 tumor cells = test: colonogenic cell survival assay; assay type: cell-based; conditions: Mus musculus, 120 h, L1210, read-out: Colonies formed after 5 days (% of control)
Protocol: (§3) Inhibition of colony formation in soft agar medium (colonogenic cell survival assay) is a more rigorous and direct measurement of cell kill or growth inhibition, and reflects the anti-cancer activity of the test compound. Briefly, tumor cells were cultured in petri dishes in methylcellulose, with or without a phosphonate test compound, and the number of colonies formed during a 5-day incubation period were counted.
The effectiveness of S-thioalkylphosphonate on the growth of a lymphoma cell line was also investigated. L1210 is a mouse B-Cell tumor (lymphoma), was tested in soft agar for susceptibility to the cytotoxic action of thioalkylphosphonate.

WEHI-3B tumor = WEHI-3B tumor growth in BALB/C mice; assay type: in vivo; conditions: for Tumor volume in cm^3: 500 μg (approx. 25 mg/Kg) daily IM
Protocol: After 3 days one group (n=5) of mice received 500 μg (approximately 25 mg/Kg body weight) of the phosphonate compound of the following formula daily by intramuscular (IM) injection. The size of the resulting tumor was measured using a caliper: [drawing 17]

WEHI-3B tumor cells [3] = test: colonogenic cell survival assay; assay type: cell-based; conditions: Mus musculus, WEHI3B, 120 h, WEHI-3B, read-out: Colonies formed after 5 days (% of control)
Protocol: as §3
Table 17 tabulates data obtained with two differrent phosphonate analogs using a colonogenic assay. Colonogenic assay is one of the most trusted tests for determination of effectiveness of an anti-cancer agent. The test is based on the formation of tumor colonies in vitro in a methyl cellulose or soft agar medium. The following results were obtained with the formation of colonies in methyl cellulose medium after five days in the presence or absence of four phosphonate analogs, two with a thioalkyl chain and two with an alkyloxy chain.

P388 tumor cells = test: colonogenic cell survival assay; assay type: cell-based; conditions: Mus musculus, 120 h, P388, read-out: Colonies formed after 5 days (% of control)
Protocol: as §3
The efficacy of 4-hexadecylthio-3-methoxybutane phosphonocholine on the growth of a mouse […] tumor was evaluated. The P388 cell line was cultured in a soft agar in the presence and absence of various concentrations of thioalkylphosphonate for 5 days, the number of tumor colonies formed during this period of time was registered.

## CCCCCCCCCCCCCCCCCCOCC(CCP(=O)([O-])OCC[N+](C)(C)C)OC (centres unmarked) [compound VI]
WEHI-3B tumor cells [1]; 24 h, Day 1
  activity at 1.25 µM: 95%
  activity at 2.5 µM: 72%
  activity at 5 µM: 34%
  activity at 10 µM: 18%
  activity at 20 µM: 8%
  activity at 40 µM: 3%
WEHI-3B tumor cells [1]; 48 h, Day 2
  activity at 1.25 µM: 84%
  activity at 2.5 µM: 67%
  activity at 5 µM: 22%
  activity at 10 µM: 13%
  activity at 20 µM: 2%
  activity at 40 µM: 2%
WEHI-3B tumor cells [1]; 72 h, Day 3
  activity at 1.25 µM: 77%
  activity at 2.5 µM: 54%
  activity at 5 µM: 12%
  activity at 10 µM: 10%
  activity at 20 µM: 1%
  activity at 40 µM: 2%
C-41 tumor cells; C4-1, 2.5 μM
  activity at 2.5 µM: 88%
C-41 tumor cells; C4-1, 5 μM
  activity at 5 µM: 63%
C-41 tumor cells; C4-1, 10 μM
  activity at 10 µM: 42%
C-41 tumor cells; C4-1, 20 μM
  activity at 20 µM: 41%
C-41 tumor cells; C4-1, 40 μM
  activity at 40 µM: 16%
[2]; day 0 after tumor injection
  Tumor volume (mm^3): 0 mm^3
[2]; day 7 after tumor injection
  Tumor volume (mm^3): 0 mm^3
[2]; day 10 after tumor injection
  Tumor volume (mm^3): 0 mm^3
[2]; day 17 after tumor injection
  Tumor volume (mm^3): 100 mm^3
[2]; day 18 after tumor injection
  Tumor volume (mm^3): 175 mm^3
[2]; day 20 after tumor injection
  Tumor volume (mm^3): 252 mm^3
[2]; day 22 after tumor injection
  Tumor volume (mm^3): 500 mm^3
[2]; versus untreated animals, 50 mg/day orally once a day
  retardation of tumor growth: approximately 6 days

## CCCCCCCCCCCCCCCCOCC(CP(=O)([O-])OCC[N+](C)(C)C)OC (centres unmarked) [compound VII]
L1210 tumor cells; 1.25 μM
  activity at 1.25 µM: 91 ± 7%
L1210 tumor cells; 2.5 μM
  activity at 2.5 µM: 80 ± 11%
L1210 tumor cells; 5 μM
  activity at 5 µM: 55 ± 4%
L1210 tumor cells; 10 μM
  activity at 10 µM: 42 ± 5%
L1210 tumor cells; 20 μM
  activity at 20 µM: 22 ± 3%
L1210 tumor cells; 40 μM
  activity at 40 µM: 14 ± 5%
WEHI-3B tumor; 25 mg/Kg body weight per day, intramuscularly
  effect on tumor growth (in words): delayed the onset of tumor growth and reduced the tumor growth significantly
WEHI-3B tumor; day 3 after implantation
  Tumor volume in cm^3: 0.000 ± 0.000 cm^3
WEHI-3B tumor; day 15 after implantation
  Tumor volume in cm^3: 0.000 ± 0.000 cm^3
WEHI-3B tumor; day 17 after implantation
  Tumor volume in cm^3: 0.000 ± 0.000 cm^3
WEHI-3B tumor; day 20 after implantation
  Tumor volume in cm^3: 0.036 ± 0.010 cm^3
WEHI-3B tumor; day 22 after implantation
  Tumor volume in cm^3: 0.117 ± 0.017 cm^3
WEHI-3B tumor; day 24 after implantation
  Tumor volume in cm^3: 0.172 ± 0.025 cm^3
WEHI-3B tumor cells [3]; 1.25 μM
  activity at 1.25 µM: 88%
WEHI-3B tumor cells [3]; 2.5 μM
  activity at 2.5 µM: 60%
WEHI-3B tumor cells [3]; 5 μM
  activity at 5 µM: 48%
WEHI-3B tumor cells [3]; 10 μM
  activity at 10 µM: 34%
WEHI-3B tumor cells [3]; 20 μM
  activity at 20 µM: 13%
WEHI-3B tumor cells [3]; 40 μM
  activity at 40 µM: 2%
P388 tumor cells; 1.25 μM
  activity at 1.25 µM: 88 ± 6%
P388 tumor cells; 2.5 μM
  activity at 2.5 µM: 79 ± 8%
P388 tumor cells; 5 μM
  activity at 5 µM: 61 ± 7%
P388 tumor cells; 10 μM
  activity at 10 µM: 56 ± 7%
P388 tumor cells; 20 μM
  activity at 20 µM: 29 ± 4%
P388 tumor cells; 40 μM
  activity at 40 µM: 16 ± 2%
